Assay results: US9631001B2, “Peptide antagonists of the vasopressin-2 receptor” (COMMISSARIAT A L'ENERGIE ATOMIQUE ET AUX ENERGIES …, priority 2012, dated 2017)

Tests used:
Test in all cases: IonWorks electrophysiological assay
Type in all cases: cell-based
Settings in all cases: 1 μM
[1] = target: T1, hERG (Homo sapiens, UniProt Q12809)
T1 construct: expressed in transfected cells
Method: (§1) The stock solution was transferred to a master plate and into assay plates where 2 μl per well of the solution were placed. On the day of the assay, 198 μl of external solution containing the appropriate DMSO concentration was added and mixed thoroughly. This provided a 1:100 dilution. A further 1:3 dilution occurred upon addition to the cells in the IonWorks, giving a 1:300 dilution in total. On each assay plate, at least 8 wells were reserved for vehicle control (0.3% DMSO) and at least 8 wells for each positive control specific to the cell line tested. The positive controls were tested at a maximal blocking and an approximate IC50 concentration. The compounds used for positive controls: Nav1.5 100 μM and 5 mM Lidocaine, Kv4.3/KChIP2 20 μM and 500 μM Quinidine, Cav1.2 1 μM and 100 μM Nitrendipine, Kv1.5 300 μM and 10 mM 4-AP, KCNQ1/minK 10 μM and 100 μM Chromanol 293B, hERG 0.1 μM and 1 μM Cisapride, HCN4 50 μM and 3 mM Cesium, Kir2.1 20 μM and 500 μM Barium.

[2] = target: T2, Kir2.1 (Homo sapiens, UniProt P63252)
T2 construct: expressed in transfected cells
T2 sequence (P63252 1-427): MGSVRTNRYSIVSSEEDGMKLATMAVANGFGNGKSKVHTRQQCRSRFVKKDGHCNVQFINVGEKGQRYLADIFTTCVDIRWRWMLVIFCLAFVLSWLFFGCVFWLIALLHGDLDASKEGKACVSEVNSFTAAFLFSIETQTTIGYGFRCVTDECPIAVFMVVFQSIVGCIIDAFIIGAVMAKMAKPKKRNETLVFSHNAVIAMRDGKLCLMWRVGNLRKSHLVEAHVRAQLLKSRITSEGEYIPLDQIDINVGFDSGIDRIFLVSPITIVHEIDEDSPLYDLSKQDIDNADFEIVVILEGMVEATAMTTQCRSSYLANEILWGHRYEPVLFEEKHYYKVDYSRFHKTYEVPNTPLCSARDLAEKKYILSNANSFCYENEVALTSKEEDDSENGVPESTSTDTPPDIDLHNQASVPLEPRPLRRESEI
Method: as §1

[3] = target: T3, Kv1.5 (Homo sapiens, UniProt P22460)
T3 construct: expressed in transfected cells
Method: as §1

[4] = target: T4, Nav1.5 (Homo sapiens, UniProt Q14524)
T4 construct: expressed in transfected cells
Method: as §1

[5] = target: T5, Kv4.3/KChIP2 (Homo sapiens, UniProt Q9UK17)
T5 construct: expressed in transfected cells
T5 sequence (Q9UK17 1-655): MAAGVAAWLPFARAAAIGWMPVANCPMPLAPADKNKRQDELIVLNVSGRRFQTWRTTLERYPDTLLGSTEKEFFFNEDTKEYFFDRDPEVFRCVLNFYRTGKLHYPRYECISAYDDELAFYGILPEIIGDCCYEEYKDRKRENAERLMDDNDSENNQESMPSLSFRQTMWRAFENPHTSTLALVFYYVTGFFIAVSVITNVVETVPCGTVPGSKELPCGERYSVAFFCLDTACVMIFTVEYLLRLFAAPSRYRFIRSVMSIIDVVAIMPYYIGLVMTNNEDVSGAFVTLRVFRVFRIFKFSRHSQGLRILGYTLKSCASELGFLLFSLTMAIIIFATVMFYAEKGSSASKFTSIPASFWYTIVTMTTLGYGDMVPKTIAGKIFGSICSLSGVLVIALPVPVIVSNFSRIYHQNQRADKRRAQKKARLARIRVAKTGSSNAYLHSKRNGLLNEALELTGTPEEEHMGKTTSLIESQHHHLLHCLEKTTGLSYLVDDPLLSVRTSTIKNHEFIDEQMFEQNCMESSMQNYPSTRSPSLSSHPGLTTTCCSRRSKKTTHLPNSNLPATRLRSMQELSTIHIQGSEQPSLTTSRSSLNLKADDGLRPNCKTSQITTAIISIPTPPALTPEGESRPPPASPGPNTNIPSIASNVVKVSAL
T5 sequence (Q9NS61 1-270 partner): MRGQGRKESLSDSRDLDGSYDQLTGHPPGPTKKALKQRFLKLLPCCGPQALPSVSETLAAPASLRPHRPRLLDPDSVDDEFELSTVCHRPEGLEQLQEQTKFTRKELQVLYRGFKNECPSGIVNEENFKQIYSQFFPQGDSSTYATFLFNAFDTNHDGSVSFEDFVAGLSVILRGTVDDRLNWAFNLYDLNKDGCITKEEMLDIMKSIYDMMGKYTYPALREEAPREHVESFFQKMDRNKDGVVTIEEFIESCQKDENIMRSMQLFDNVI
Method: as §1

T3 sequence (P22460 whole entry): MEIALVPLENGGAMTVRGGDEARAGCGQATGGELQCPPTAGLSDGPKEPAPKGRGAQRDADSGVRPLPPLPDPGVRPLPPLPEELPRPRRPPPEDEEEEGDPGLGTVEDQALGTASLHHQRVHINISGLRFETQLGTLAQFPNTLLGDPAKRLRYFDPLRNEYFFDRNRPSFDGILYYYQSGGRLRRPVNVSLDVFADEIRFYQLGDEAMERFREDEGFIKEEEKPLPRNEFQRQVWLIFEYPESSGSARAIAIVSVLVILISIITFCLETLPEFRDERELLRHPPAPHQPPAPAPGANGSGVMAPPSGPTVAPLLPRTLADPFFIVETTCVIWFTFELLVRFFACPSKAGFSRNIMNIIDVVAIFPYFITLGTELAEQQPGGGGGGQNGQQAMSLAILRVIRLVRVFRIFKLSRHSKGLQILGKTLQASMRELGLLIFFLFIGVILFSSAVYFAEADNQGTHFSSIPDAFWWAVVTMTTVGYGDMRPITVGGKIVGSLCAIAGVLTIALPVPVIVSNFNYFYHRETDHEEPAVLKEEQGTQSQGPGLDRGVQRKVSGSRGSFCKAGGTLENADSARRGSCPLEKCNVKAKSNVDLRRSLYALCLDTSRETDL
T1 sequence (Q12809 whole entry): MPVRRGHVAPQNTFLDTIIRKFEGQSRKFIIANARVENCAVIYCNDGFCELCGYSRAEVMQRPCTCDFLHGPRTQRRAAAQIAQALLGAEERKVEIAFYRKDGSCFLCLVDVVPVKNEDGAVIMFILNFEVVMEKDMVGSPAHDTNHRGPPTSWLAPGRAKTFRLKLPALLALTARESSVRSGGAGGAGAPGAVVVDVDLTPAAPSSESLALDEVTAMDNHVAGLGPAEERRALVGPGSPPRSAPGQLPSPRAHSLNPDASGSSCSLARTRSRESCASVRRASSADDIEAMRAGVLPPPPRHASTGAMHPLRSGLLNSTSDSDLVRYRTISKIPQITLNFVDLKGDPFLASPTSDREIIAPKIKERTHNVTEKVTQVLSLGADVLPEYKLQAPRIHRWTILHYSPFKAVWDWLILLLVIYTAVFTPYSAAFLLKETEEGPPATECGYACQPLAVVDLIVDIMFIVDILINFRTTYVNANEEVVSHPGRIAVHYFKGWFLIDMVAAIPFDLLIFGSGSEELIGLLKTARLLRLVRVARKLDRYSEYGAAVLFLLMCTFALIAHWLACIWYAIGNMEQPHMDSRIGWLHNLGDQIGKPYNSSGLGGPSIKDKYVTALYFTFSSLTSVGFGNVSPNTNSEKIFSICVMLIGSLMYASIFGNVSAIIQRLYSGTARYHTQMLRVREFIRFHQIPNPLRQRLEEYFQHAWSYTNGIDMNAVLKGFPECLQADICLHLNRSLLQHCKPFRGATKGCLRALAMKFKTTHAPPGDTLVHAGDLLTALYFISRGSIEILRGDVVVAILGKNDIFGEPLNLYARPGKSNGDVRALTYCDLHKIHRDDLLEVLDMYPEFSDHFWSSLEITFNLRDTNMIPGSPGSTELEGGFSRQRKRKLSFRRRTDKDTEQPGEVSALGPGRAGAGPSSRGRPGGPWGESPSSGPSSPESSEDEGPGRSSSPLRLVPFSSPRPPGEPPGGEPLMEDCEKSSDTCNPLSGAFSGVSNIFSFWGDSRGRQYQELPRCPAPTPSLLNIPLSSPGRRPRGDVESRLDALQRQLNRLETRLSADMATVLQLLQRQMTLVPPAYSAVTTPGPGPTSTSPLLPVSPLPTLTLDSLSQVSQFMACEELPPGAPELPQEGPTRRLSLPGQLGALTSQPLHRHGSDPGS
T4 sequence (Q14524 whole entry): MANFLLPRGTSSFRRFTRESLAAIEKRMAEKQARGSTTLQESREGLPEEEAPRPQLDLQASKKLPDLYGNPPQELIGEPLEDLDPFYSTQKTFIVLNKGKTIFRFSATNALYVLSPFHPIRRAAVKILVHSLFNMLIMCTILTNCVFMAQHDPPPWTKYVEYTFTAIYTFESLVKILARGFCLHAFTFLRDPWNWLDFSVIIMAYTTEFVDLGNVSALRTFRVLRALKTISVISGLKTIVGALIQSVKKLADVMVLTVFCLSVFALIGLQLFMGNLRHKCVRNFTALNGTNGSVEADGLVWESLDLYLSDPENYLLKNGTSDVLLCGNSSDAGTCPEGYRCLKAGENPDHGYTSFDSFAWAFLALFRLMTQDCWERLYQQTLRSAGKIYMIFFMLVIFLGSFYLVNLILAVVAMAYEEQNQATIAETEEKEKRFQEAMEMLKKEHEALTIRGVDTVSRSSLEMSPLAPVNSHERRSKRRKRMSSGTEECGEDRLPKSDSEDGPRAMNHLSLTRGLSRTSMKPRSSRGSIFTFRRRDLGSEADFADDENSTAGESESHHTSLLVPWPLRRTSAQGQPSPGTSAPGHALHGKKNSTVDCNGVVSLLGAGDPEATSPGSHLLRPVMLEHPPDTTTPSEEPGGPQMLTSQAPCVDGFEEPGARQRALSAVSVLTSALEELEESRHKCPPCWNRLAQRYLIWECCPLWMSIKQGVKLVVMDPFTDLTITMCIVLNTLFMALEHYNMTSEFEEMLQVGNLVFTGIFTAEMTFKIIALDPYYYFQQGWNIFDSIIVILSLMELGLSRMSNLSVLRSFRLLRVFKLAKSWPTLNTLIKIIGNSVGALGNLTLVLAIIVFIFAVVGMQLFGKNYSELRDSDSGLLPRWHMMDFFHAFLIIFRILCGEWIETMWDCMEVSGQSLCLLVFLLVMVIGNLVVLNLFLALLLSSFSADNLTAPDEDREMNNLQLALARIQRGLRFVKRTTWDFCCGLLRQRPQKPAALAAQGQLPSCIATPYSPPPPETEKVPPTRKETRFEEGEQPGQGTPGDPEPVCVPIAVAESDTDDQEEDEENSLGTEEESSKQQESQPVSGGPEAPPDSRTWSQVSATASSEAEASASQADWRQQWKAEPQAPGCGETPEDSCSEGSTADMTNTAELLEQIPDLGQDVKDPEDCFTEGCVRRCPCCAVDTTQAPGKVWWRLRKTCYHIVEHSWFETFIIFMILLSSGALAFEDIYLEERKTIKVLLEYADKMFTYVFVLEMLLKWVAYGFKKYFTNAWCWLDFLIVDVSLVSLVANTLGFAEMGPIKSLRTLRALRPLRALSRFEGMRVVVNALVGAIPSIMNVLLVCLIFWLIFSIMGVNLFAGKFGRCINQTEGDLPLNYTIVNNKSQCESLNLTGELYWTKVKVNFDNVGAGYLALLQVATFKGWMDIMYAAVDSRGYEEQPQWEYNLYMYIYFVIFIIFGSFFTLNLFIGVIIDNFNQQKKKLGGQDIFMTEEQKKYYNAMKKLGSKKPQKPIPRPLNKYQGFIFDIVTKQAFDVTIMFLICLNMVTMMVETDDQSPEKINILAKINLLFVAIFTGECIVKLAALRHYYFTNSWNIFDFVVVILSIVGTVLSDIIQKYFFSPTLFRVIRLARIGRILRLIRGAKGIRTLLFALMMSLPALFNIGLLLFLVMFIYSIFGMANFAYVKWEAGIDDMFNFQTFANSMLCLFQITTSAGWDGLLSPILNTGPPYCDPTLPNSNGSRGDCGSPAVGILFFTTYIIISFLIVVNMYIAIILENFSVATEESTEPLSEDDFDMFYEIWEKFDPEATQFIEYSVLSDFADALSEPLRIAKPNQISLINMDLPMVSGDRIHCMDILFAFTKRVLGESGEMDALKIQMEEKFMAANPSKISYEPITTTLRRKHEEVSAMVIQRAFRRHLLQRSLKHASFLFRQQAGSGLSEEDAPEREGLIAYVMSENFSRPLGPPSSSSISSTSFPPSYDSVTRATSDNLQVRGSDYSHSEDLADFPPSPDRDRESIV

## CC[C@H](C)[C@@H]1NC(=O)[C@H]([C@@H](C)O)NC(=O)[C@H](CO)NC(=O)[C@H](Cc2ccccc2)NC(=O)[C@H](CCCNC(=N)N)NC(=O)[C@H](CC(N)=O)NC(=O)[C@H](C)NC(=O)[C@H](CC(N)=O)NC(=O)CNC(=O)[C@H](CCCCN)NC(=O)[C@@H]2CSSC[C@@H]3NC(=O)[C@@H]4CCCN4C(=O)CNC(=O)[C@@H]4CCCN4C(=O)[C@H](CCCCN)NC(=O)[C@H](C(C)C)NC(=O)[C@@H]4CCCN4C(=O)[C@H](CC(C)C)NC(=O)[C@H](CC(N)=O)NC(=O)[C@@H](NC(=O)[C@H](Cc4ccccc4)NC(=O)[C@H](CO)NC(=O)[C@@H]4CCCN4C(=O)[C@@H](N)CCCNC(=N)N)CSSC[C@@H](C(=O)N[C@H](C(=O)NCC(=O)O)C(C)C)NC(=O)[C@H]([C@@H](C)O)NC(=O)[C@H](CCCNC(=N)N)NC(=O)[C@H](CCCNC(=N)N)NC(=O)[C@H](CSSC[C@H](NC(=O)[C@H](CCCCN)NC(=O)[C@H](CC(N)=O)NC(=O)[C@H]([C@@H](C)O)NC(=O)[C@H](CCCCN)NC(=O)[C@H](CCC(N)=O)NC(=O)[C@H](CO)NC(=O)[C@H](Cc4ccc(O)cc4)NC(=O)[C@H](Cc4ccc(O)cc4)NC(=O)[C@H](Cc4ccccc4)NC(=O)[C@H](C)NC(=O)[C@H](CO)NC(=O)[C@H](Cc4ccccc4)NC(=O)[C@H](Cc4ccccc4)NC(=O)CNC(=O)[C@H](CC(N)=O)NC3=O)C(=O)N[C@@H](Cc3c[nH]cn3)C(=O)N[C@@H](CO)C(=O)N[C@@H](Cc3ccccc3)C(=O)N[C@@H]([C@@H](C)O)C(=O)N[C@@H](Cc3ccc(O)cc3)C(=O)NCC(=O)NCC(=O)N2)NC(=O)[C@H](CCCCN)NC(=O)[C@H](CCC(=O)O)NC1=O [U-Da2a]
[1]
  inhibition of hERG: did not appear to exhibit significant inhibition
[2]
  inhibition of Kir2.1: did not appear to exhibit significant inhibition
[3]
  inhibition of Kv1.5: did not appear to exhibit significant inhibition
[4]
  inhibition of Nav1.5: did not appear to exhibit significant inhibition
[5]
  inhibition of Kv4.3/KChIP2: did not appear to exhibit significant inhibition
